Experimental data as given in patent US11096985B2, “Antimicrobial peptides, their variants and uses” (priority 2015, dated 2021).
Where a SMILES comes first, the peptide text is derived from it. [ ]: non-standard residue; d: D form.

Assays:
[1] = system: clinical strains of Proteus mirabilis; assay: MIC, clinical strains of Proteus mirabilis; type: cell-based; set-up: unit: µg/mL; conditions: microdilution, Muller Hinton broth-cation adjusted, 0.02% BSA, 0.2% acetic acid
In short: (§1)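 MIC = lowest peptide concentration showing no visual growth after 20–24 h at 37° C. Range 0.125–128 μg/ml; bacteria at 5.0×10^5 cfu/ml in MH broth, polypropylene microdilution format; yeasts in potato dextrose broth.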

[2] = system: clinical strains of Streptococcus pneumoniae; assay: MIC, clinical strains of Streptococcus pneumoniae; type: cell-based; set-up: unit: µg/mL; conditions: microdilution, Muller Hinton broth-cation adjusted, 0.02% BSA, 0.2% acetic acid
In short: as §1

[3] = system: clinical strains of Escherichia coli; assay: MIC, clinical strains of E. coli; type: cell-based; set-up: unit: μg/ml; conditions: microdilution, Muller Hinton broth-cation adjusted, 0.02% BSA, 0.2% acetic acid
In short: as §1

[4] = system: clinical strains of C. parapsilosis; assay: MIC, clinical yeast strains, C. parapsilosis; type: cell-based, Candida parapsilosis; set-up: unit: μg/ml
In short: as §1

[5] = system: clinical strains of Pseudomonas aeruginosa; assay: MIC, clinical strains of P. aeruginosa; type: cell-based; set-up: unit: μg/ml; conditions: microdilution, Muller Hinton broth-cation adjusted, 0.02% BSA, 0.2% acetic acid
In short: as §1

[6] = system: clinical strains of Enterobacter cloacae; assay: MIC, clinical strains of Enterobacter cloacae; type: cell-based; set-up: unit: μg/ml; conditions: microdilution, Muller Hinton broth-cation adjusted, 0.02% BSA, 0.2% acetic acid
In short: as §1

[7] = system: clinical strains of Acinetobacter johnsonii; type: cell-based; conditions: Acinetobacter johnsonii clinical strain 1; microdilution, Muller Hinton broth-cation adjusted, 0.02% BSA, 0.2% acetic acid
In short: as §1

[8] = system: clinical strains of C. quillermondiae; assay: MIC, clinical yeast strains, C. quillermondiae; type: cell-based; conditions: C. quillermondiae clinical yeast strain 1
In short: as §1

[9] = system: clinical strains of Acinetobacter baumannii; assay: MIC, clinical strains of Acinetobacter baumannii; type: cell-based; conditions: microdilution, Muller Hinton broth-cation adjusted, 0.02% BSA, 0.2% acetic acid
In short: as §1

[10] = system: clinical strains of C. glabrata; assay: MIC, clinical yeast strains, C. glabrata; type: cell-based, Candida glabrata; set-up: unit: μg/ml
In short: as §1

[11] = system: clinical strains of Staphylococcus aureus; assay: MIC, clinical strains of S. aureus; type: cell-based; set-up: unit: μg/ml; conditions: microdilution, Muller Hinton broth-cation adjusted, 0.02% BSA, 0.2% acetic acid
In short: as §1

[12] = system: clinical strains of Klebsiella pneumoniae; assay: MIC, clinical strains of K. pneumoniae; type: cell-based; set-up: unit: μg/ml; conditions: microdilution, Muller Hinton broth-cation adjusted, 0.02% BSA, 0.2% acetic acid
In short: as §1

[13] = system: clinical strains of Serratia marcescens; assay: MIC, clinical strains of Serratia marcescens; type: cell-based; set-up: unit: µg/mL; conditions: microdilution, Muller Hinton broth-cation adjusted, 0.02% BSA, 0.2% acetic acid
In short: as §1

[14] = system: clinical strains of Candida albicans; assay: MIC, clinical yeast strains, Candida albicans; type: cell-based; set-up: unit: μg/ml
In short: as §1

CC(C)C[C@@H](NC(=O)[C@H](N)CCCNC(=N)N)C(=O)N[C@H](CCCCN)C(=O)N[C@H](Cc1c[nH]c2ccccc12)C(=O)N[C@H](Cc1ccccc1)C(=O)N[C@H](CC(C)C)C(=O)N[C@H](CC(C)C)C(=O)N[C@H](Cc1ccccc1)C(=O)N[C@H](CCCNC(=N)N)C(=O)N[C@H](CCCCN)C(=O)N[C@H](CCCNC(=N)N)C(=O)O [Chain308D] (H-[dR][dL][dK][dW][dF][dL][dL][dF][dR][dK][dR]-OH)
Minimum inhibitory concentration ([1]; Proteus mirabilis clinical strain 1): >128 | Minimum inhibitory concentration ([1]; Proteus mirabilis clinical strain 2): 32 | Minimum inhibitory concentration ([1]; Proteus mirabilis clinical strain 3): 128 | Minimum inhibitory concentration ([1]; Proteus mirabilis clinical strain 4): >128 | Minimum inhibitory concentration ([1]; Proteus mirabilis clinical strain 5): >128 | Minimum inhibitory concentration ([2]; Streptococcus pneumoniae clinical strain 1): 8 | Minimum inhibitory concentration ([2]; Streptococcus pneumoniae clinical strain 2): 4 | Minimum inhibitory concentration ([2]; Streptococcus pneumoniae clinical strain 3): 8 | Minimum inhibitory concentration ([2]; Streptococcus pneumoniae clinical strain 4): 2 | Minimum inhibitory concentration ([2]; Streptococcus pneumoniae clinical strain 5): 4 | Minimum inhibitory concentration ([3]; Escherichia coli clinical strain 1): 1 | Minimum inhibitory concentration ([3]; Escherichia coli clinical strain 2): 0.5 | Minimum inhibitory concentration ([3]; Escherichia coli clinical strain 3): 1 | Minimum inhibitory concentration ([3]; Escherichia coli clinical strain 4): 1 | Minimum inhibitory concentration ([3]; Escherichia coli clinical strain 5): 1 | Minimum inhibitory concentration ([4]; C. parapsilosis clinical yeast strain 1): 8 | Minimum inhibitory concentration ([4]; C. parapsilosis clinical yeast strain 2): 8 | Minimum inhibitory concentration ([4]; C. parapsilosis clinical yeast strain 3): 8 | Minimum inhibitory concentration ([4]; C. parapsilosis clinical yeast strain 4): 4 | Minimum inhibitory concentration ([5]; Pseudomonas aeruginosa clinical strain 1): 8 | Minimum inhibitory concentration ([5]; Pseudomonas aeruginosa clinical strain 2): 8 | Minimum inhibitory concentration ([5]; Pseudomonas aeruginosa clinical strain 3): 4 | Minimum inhibitory concentration ([5]; Pseudomonas aeruginosa clinical strain 4): 4 | Minimum inhibitory concentration ([5]; Pseudomonas aeruginosa clinical strain 5): 4 | Minimum inhibitory concentration ([6]; Enterobacter cloacae clinical strain 1): 2 | Minimum inhibitory concentration ([6]; Enterobacter cloacae clinical strain 2): 2 | Minimum inhibitory concentration ([6]; Enterobacter cloacae clinical strain 3): 2 | Minimum inhibitory concentration ([6]; Enterobacter cloacae clinical strain 4): 2 | Minimum inhibitory concentration ([6]; Enterobacter cloacae clinical strain 5): 2 | Minimum inhibitory concentration [7]: 4 | Minimum inhibitory concentration [8]: 4 | Minimum inhibitory concentration ([9]; Acinetobacter baumannii clinical strain 1): 4 | Minimum inhibitory concentration ([9]; Acinetobacter baumannii clinical strain 2): 4 | Minimum inhibitory concentration ([9]; Acinetobacter baumannii clinical strain 3): 4 | Minimum inhibitory concentration ([9]; Acinetobacter baumannii clinical strain 4): 2 | Minimum inhibitory concentration ([9]; Acinetobacter baumannii clinical strain 5): 2 | Minimum inhibitory concentration ([10]; C. glabrata clinical yeast strain 1): 16 | Minimum inhibitory concentration ([10]; C. glabrata clinical yeast strain 2): 16 | Minimum inhibitory concentration ([10]; C. glabrata clinical yeast strain 3): 16 | Minimum inhibitory concentration ([10]; C. glabrata clinical yeast strain 4): 16 | Minimum inhibitory concentration ([11]; Staphylococcus aureus clinical strain 1): 1 | Minimum inhibitory concentration ([11]; Staphylococcus aureus clinical strain 2): 2 | Minimum inhibitory concentration ([11]; Staphylococcus aureus clinical strain 3): 1 | Minimum inhibitory concentration ([11]; Staphylococcus aureus clinical strain 4): 2 | Minimum inhibitory concentration ([11]; Staphylococcus aureus clinical strain 5): 2 | Minimum inhibitory concentration ([12]; Klebsiella pneumoniae clinical strain 1): 4 | Minimum inhibitory concentration ([12]; Klebsiella pneumoniae clinical strain 2): 4 | Minimum inhibitory concentration ([12]; Klebsiella pneumoniae clinical strain 3): 4 | Minimum inhibitory concentration ([12]; Klebsiella pneumoniae clinical strain 4): 4 | Minimum inhibitory concentration ([12]; Klebsiella pneumoniae clinical strain 5): 4 | Minimum inhibitory concentration ([13]; Serratia marcescens clinical strain 1): 128 | Minimum inhibitory concentration ([13]; Serratia marcescens clinical strain 2): 128 | Minimum inhibitory concentration ([13]; Serratia marcescens clinical strain 3): 64 | Minimum inhibitory concentration ([13]; Serratia marcescens clinical strain 4): >128 | Minimum inhibitory concentration ([13]; Serratia marcescens clinical strain 5): 128 | Minimum inhibitory concentration ([14]; Candida albicans clinical yeast strain 1): 16 | Minimum inhibitory concentration ([14]; Candida albicans clinical yeast strain 2): 16 | Minimum inhibitory concentration ([14]; Candida albicans clinical yeast strain 3): 16 | Minimum inhibitory concentration ([14]; Candida albicans clinical yeast strain 4): 16 | Minimum inhibitory concentration ([14]; Candida albicans clinical yeast strain 5): 16
